The structures appear in SMILES notation. Counter-ions that a name gives are not always drawn.

As for `Clc1ccc([C@H]2CCNC[C@@H]2OCc2ccc3ccccc3c2)cc1` (racemic) (as salt: hydrochloride) [Example 12, (3RS,4RS)-4-(4-chloro-phenyl)-3-(naphthalen-2-ylmethoxy)-piperidine], the melting point is 159 to 161 °C (dec.).

The term melting point denotes the temperature, or range, at which the solid turns liquid.

Source of the values: US20060079533A1, “Methods of treating alzheimer's disease” (priority 2001, published 2006).
